Assay results published in patent US12612389B2, “Benzofuran-based N-acylhydrazone derivative and pharmaceutical composition comprising same” (KOREA RESEARCH INSTITUTE OF BIOSCIENCE AND BIOTECHNOLOGY, priority 2019, dated 2026).

How the values were obtained:
[1] = Metabolic stability test in liver microsomes; format: in vitro ADME; conditions: 0.5 mg protein/mL, 37° C.
Protocol: (§1) The test compounds at a concentration of […] were administered in the presence or absence of NADPH (1 mM) to liver […] (0.5 mg protein/mL) of humans, rats and mice, and metabolic stability was tested at 37° C. for 30 minutes. In addition, buspirone was used as a positive control. Results thereof are shown in Table below and FIGS. 4A to 4E.

K562/ADR = assay: Anti-proliferative activity test in cancer cells exhibiting multidrug resistance (MTT); format: cell-based; conditions: for Resistance Factor: ratio IC50 K562/ADR to IC50 K562
Protocol: (§2) HeLa cells (American Type Culture Collection: ATCC, USA), a human cervical cancer cell line, were seeded in a 96-well plate at 3×10^3 cells/well, and the cells were then treated with compounds of Examples or Comparative Example according to the present invention and grown for 2 days. Then, MTT (3-(4,5-dimethylthiazol-2-yl)-2,5-diphenyltetrazolium bromide) reagent was added at 10 μL/well. […] The data shown in Table below are mean values of results obtained by repeating the analysis twice. Specifically, K562 and MCF7 (Bio Evaluation Center, Korea Research Institute of Bioscience and Biotechnology, Korea) and multidrug-resistant cell lines of each of these cell lines, i.e., K562/ADR and MCF7/ADR (Bio Evaluation Center, Korea Research Institute of Bioscience and Biotechnology, Korea), were cultured on microtiter plates (1-3×10^3 cells/well). […] The data shown in Table below are mean values of results obtained by repeating the analysis three times.

MCF7/ADR = assay: as above; format: cell-based; conditions: for Resistance Factor: ratio IC50 MCF7/ADR to IC50 MCF7
Protocol: as §2

HeLa cells = assay: Anti-proliferative activity test in HeLa cell line (MTT); format: cell-based; conditions: Homo sapiens, 48 h, grown for 2 days, mean of 2
Protocol: HeLa cells (American Type Culture Collection: ATCC, USA), a human cervical cancer cell line, were seeded in a 96-well plate at 3×10^3 cells/well, and the cells were then treated with compounds of Examples or Comparative Example according to the present invention and grown for 2 days. Then, MTT (3-(4,5-dimethylthiazol-2-yl)-2,5-diphenyltetrazolium bromide) reagent was added at 10 μL/well. After 2 hours, absorbance was measured at “OD 450” and statistical values were obtained using Prism™6 program. The data shown in Table below are mean values of results obtained by repeating the analysis twice.

K562 = assay: Anti-proliferative activity test in cancer cells exhibiting multidrug resistance (MTT), parent line; format: cell-based; conditions: Homo sapiens, 96 h, 4 days
Protocol: as §2

MCF7 = assay: as above; format: cell-based; conditions: Homo sapiens, 96 h, 4 days
Protocol: as §2

Stability test in plasma [2] = format: in vitro ADME; set-up: Residue % (180 minutes elapsed), Mean: dose or concentration left out as unconfirmed; conditions: 37° C.
Protocol: In order to test the stability (in vivo) of the Example compounds according to the present invention, the compounds of Examples 2, 3, 4, 8 and 15 were administered intravenously, and plasma concentrations over time were observed. In addition, procaine was used as a positive control. Plasma stability was measured three times by administering the test compound at a concentration […] to human, rat, or mouse plasma (90 μL) at 37° C. Results thereof are shown in Table below and FIGS. 3A to 3E.

Stability test in plasma [3] = format: in vitro ADME; conditions: Rat plasma, 37° C.; for Residue % (180 minutes elapsed), Mean: 5 mM
Protocol: In order to test the stability (in vivo) of the Example compounds according to the present invention, the compounds of Examples 2, 3, 4, 8 and 15 were administered intravenously, and plasma concentrations over time were observed. In addition, procaine was used as a positive control. Plasma stability was measured three times by administering the test compound at a concentration of 5 mM to human, rat, or mouse plasma (90 μL) at 37° C. Results thereof are shown in Table below and FIGS. 3A to 3E.

[4] = Stability in buffer (line of the metabolic stability test); format: in vitro ADME
Protocol: as §1

## O=C1CC2(CCCC2)CC(=O)N1CCCCN1CCN(c2ncccn2)CC1 [Buspirone, buspirone, reference compound]
[1]; Human, +NADPH
  Residue (%) after culturing for 30 min: 2.21 ± 0.03%
[1]; Human, −NADPH
  Residue (%) after culturing for 30 min: 91.06 ± 0.40%
[1]; Mouse, +NADPH
  Residue (%) after culturing for 30 min: 0.32 ± 0.05%
[1]; Mouse, −NADPH
  Residue (%) after culturing for 30 min: 94.74 ± 0.74%
[1]; Rat, +NADPH
  Residue (%) after culturing for 30 min: 0.41 ± 0.02%
[1]; Rat, −NADPH
  Residue (%) after culturing for 30 min: 93.08 ± 1.21%

## COc1cc2c(c(OC)c1OC)-c1ccc(OC)c(=O)cc1[C@@H](NC(C)=O)CC2 [Colchicine, colchicine]
K562/ADR
  Resistance Factor: 22.91
MCF7/ADR
  Resistance Factor: 34.15

## CCOC(=O)Cn1c(C)c(/C=N/NC(=O)c2cc3c(ccc4ccccc43)o2)c2ccccc21 [Comparative Example 1, (E)-ethyl 2-(2-methyl-3-((2-(naphtho[2,1-b]furan-2-carbonyl)hydrazono)methyl)-1H-indol-1-yl)acetate, reference compound]
HeLa cells
  IC50: 0.562 µM

## COc1cccc2c1C(=O)c1c(O)c3c(c(O)c1C2=O)C[C@@](O)(C(=O)CO)C[C@@H]3O[C@H]1C[C@H](N)[C@H](O)[C@H](C)O1 [Doxorubicin, doxorubicin]
K562
  IC50: 0.00285 µM
MCF7
  IC50: 0.0154 µM
K562/ADR; Homo sapiens, 96 h, K562/ADR (multidrug-resistant), 4 days, MTT
  IC50: 2.19 µM
K562/ADR
  Resistance Factor: 767.91
MCF7/ADR; Homo sapiens, NCI/ADR-RES, 96 h, MCF7/ADR (multidrug-resistant), 4 days, MTT
  IC50: 2.61 µM
MCF7/ADR
  Resistance Factor: 169.57

## Cc1ccc2oc(C(=O)N/N=C/c3c(Cl)[nH]c4ccccc34)cc2c1 [Example 1, (E)-N′-[(2-chloro-1H-indol-3-yl)methylene]-5-methylbenzofuran-2-carbohydrazide]
HeLa cells
  IC50: 3.88 µM

## Cc1ccc2oc(C(=O)N/N=C/c3c(Cl)n(C)c4ccccc34)cc2c1 [Example 2, (E)-N′-[(2-chloro-1-methyl-1H-indol-3-yl)methylene]-5-methylbenzofuran-2-carbohydrazide]
HeLa cells
  IC50: 0.892 µM
Stability test in plasma [2]; Human plasma
  Residue % (180 minutes elapsed), Mean: 90.43%
  half-life at 5 mM: > 3 h
Stability test in plasma [2]; Mouse plasma
  Residue % (180 minutes elapsed), Mean: 55.82%
  half-life at 5 mM: > 3 h
Stability test in plasma [3]
  half-life at 5 mM: > 3 h
  Residue % (180 minutes elapsed), Mean: 75.82%
[1]; Human, +NADPH
  Residue (%) after culturing for 30 min: 8.69 ± 0.44%
[1]; Human, −NADPH
  Residue (%) after culturing for 30 min: 36.40 ± 1.90%
[1]; Mouse, +NADPH
  Residue (%) after culturing for 30 min: 2.84 ± 0.34%
[1]; Mouse, −NADPH
  Residue (%) after culturing for 30 min: 11.59 ± 1.06%
[1]; Rat, +NADPH
  Residue (%) after culturing for 30 min: 2.99 ± 0.64%
[1]; Rat, −NADPH
  Residue (%) after culturing for 30 min: 41.45 ± 0.93%
[4]
  Residue (%) after culturing for 30 min: 77.94 ± 7.04%

## CCOC(=O)Cn1c(Cl)c(/C=N/NC(=O)c2cc3cc(C)ccc3o2)c2ccccc21 [Example 3, ethyl (E)-2-{2-chloro-3-[(2-(5-methylbenzofuran-2-carbonyl)hydrazinylidene)methyl]-1H-indol-1-yl}acetate]
HeLa cells
  IC50: 0.243 µM
Stability test in plasma [2]; Human plasma
  Residue % (180 minutes elapsed), Mean: 56.52%
  half-life at 5 mM: > 3 h
Stability test in plasma [2]; Mouse plasma
  Residue % (180 minutes elapsed), Mean: 0.12%
  half-life at 5 mM: 0.0933 h
Stability test in plasma [3]
  half-life at 5 mM: 0.0767 h
  Residue % (180 minutes elapsed), Mean: 0.21%
[1]; Human, +NADPH
  Residue (%) after culturing for 30 min: 12.34 ± 0.69%
[1]; Human, −NADPH
  Residue (%) after culturing for 30 min: 22.26 ± 0.72%
[1]; Mouse, +NADPH
  Residue (%) after culturing for 30 min: 2.50 ± 0.11%
[1]; Mouse, −NADPH
  Residue (%) after culturing for 30 min: 6.81 ± 0.17%
[1]; Rat, +NADPH
  Residue (%) after culturing for 30 min: 1.39 ± 0.12%
[1]; Rat, −NADPH
  Residue (%) after culturing for 30 min: 8.53 ± 0.46%
[4]
  Residue (%) after culturing for 30 min: 89.02 ± 4.39%

## CCOCCn1c(Br)c(/C=N/NC(=O)c2cc3cc(C)ccc3o2)c2ccccc21 [Example 5, (E)-N′-[(2-bromo-1-(2-ethoxyethyl)-1H-indol-3-yl]methylene}-5-methylbenzofuran-2-carbohydrazide]
HeLa cells
  IC50: 0.263 µM

## CCOCCn1c(C(F)(F)F)c(/C=N/NC(=O)c2cc3cc(C)ccc3o2)c2ccccc21 [Example 6, (E)-N′-{[1-(2-ethoxyethyl)-2-(trifluoromethyl)-1H-indol-3-yl]methylene}-5-methylbenzofuran-2-carbohydrazide]
HeLa cells
  IC50: 1.22 µM

## COCCn1c(Cl)c(/C=N/NC(=O)c2cc3cc(C)ccc3o2)c2ccccc21 [Example 7, (E)-N′-[(2-chloro-1-(2-methoxyethyl)-1H-indol-3-yl]methylene}-5-methylbenzofuran-2-carbohydrazide]
HeLa cells
  IC50: 0.233 µM

## CCOCCn1c(Cl)c(/C=N/NC(=O)c2cc3cc(C)ccc3o2)c2ccc(OC)cc21 [Example 9, (E)-N′-[(2-chloro-1-(2-ethoxyethyl)-6-methoxy-1H-indol-3-yl]methylene}-5-methylbenzofuran-2-carbohydrazide]
HeLa cells
  IC50: 0.232 µM

## CCOCCn1c(Cl)c(/C=N/NC(=O)c2cc3cc(C)ccc3o2)c2cc(F)ccc21 [Example 10, (E)-N′-[(2-chloro-1-(2-ethoxyethyl)-5-fluoro-1H-indol-3-yl]methylene}-5-methylbenzofuran-2-carbohydrazide]
HeLa cells
  IC50: 0.221 µM

## CCOCCn1c(Cl)c(/C=N/NC(=O)c2cc3cc(C)ccc3o2)c2cc(Cl)ccc21 [Example 11, (E)-N′-[(2,5-dichloro-1-(2-ethoxyethyl)-1H-indol-3-yl]methylene}-5-methylbenzofuran-2-carbohydrazide]
HeLa cells
  IC50: 0.243 µM

## CCOCCn1c(Cl)c(/C=N/NC(=O)c2cc3cc(C)ccc3o2)c2cc(OC(F)(F)F)ccc21 [Example 12, (E)-N′-[(2-chloro-1-(2-ethoxyethyl)-5-(trifluoromethoxy)-1H-indol-3-yl]methylene}-5-methylbenzofuran-2-carbohydrazide]
HeLa cells
  IC50: 0.619 µM

## CCOCCn1c(Cl)c(/C=N/NC(=O)c2cc3cc(C)ccc3o2)c2cc(C)ccc21 [Example 13, (E)-N′-[(2-chloro-1-(2-ethoxyethyl)-5-methyl-1H-indol-3-yl]methylene}-5-methylbenzofuran-2-carbohydrazide]
HeLa cells
  IC50: 0.337 µM

## CCOCCn1c(Cl)c(/C=N/NC(=O)c2cc3cc(OC)ccc3o2)c2ccccc21 [Example 14, (E)-N′-[(2-chloro-1-(2-ethoxyethyl)-1H-indol-3-yl]methylene}-5-methoxybenzofuran-2-carbohydrazide]
HeLa cells
  IC50: 0.262 µM

## CCOCCn1c(Cl)c(/C=N/NC(=O)c2cc3cc(Cl)ccc3o2)c2ccccc21 [Example 16, (E)-5-chloro-N′-{[2-chloro-1-(2-ethoxyethyl)-1H-indol-3-yl]methylene}benzofuran-2-carbohydrazide]
HeLa cells
  IC50: 0.455 µM

## CCOCCn1c(Cl)c(/C=N/NC(=O)c2cc3c(OC)cc(OC)cc3o2)c2ccccc21 [Example 18, (E)-N′-[(2-chloro-1-(2-ethoxyethyl)-1H-indol-3-yl]methylene}-4,6-dimethoxybenzofuran-2-carbohydrazide]
HeLa cells
  IC50: 0.563 µM

## CCOCCn1c(Cl)c(/C=N/NC(=O)c2cc3cc(NC(C)=O)ccc3o2)c2ccccc21 [Example 19, (E)-N′-{2-[2-((2-chloro-1-(2-ethoxyethyl)-1H-indol-3-yl)methylene]hydrazine-1-carbonyl}benzofuran-5-yl)acetamide]
HeLa cells
  IC50: 4.52 µM

## CCOC(=O)Cn1c(C)c(/C=N/NC(=O)c2cc3c(OC)cc(OC)cc3o2)c2ccccc21 [Example 20, (E)-ethyl-2-(3-((2-(4,6-dimethoxybenzofuran-2-carbonyl) hydrazinylidene)methyl)-2-methyl-1H-indol-1-yl)acetate]
HeLa cells
  IC50: 0.5 µM

## CCN(CC)CCOC(=O)c1ccc(N)cc1 [Procaine, procaine, reference compound]
Stability test in plasma [2]; Human plasma
  Residue % (180 minutes elapsed), Mean: 0.45%
Stability test in plasma [2]; Mouse plasma
  Residue % (180 minutes elapsed), Mean: 1.06%
Stability test in plasma [3]
  Residue % (180 minutes elapsed), Mean: 1.89%
